Source: patent US20100099652A1, “NOVEL COMPOSITION BASED ON CHOLEST-4-EN-3-ONE OXIME” (TROPHOS, priority 2007, published 2010)
In brackets after ≈: the same amount, converted by molar mass.

How the values were obtained:
[1] = Stability of cholest-4-en-3-one oxime in different oils (impurities by HPLC UV at 255 nm); format: physicochemical; settings: 15 mg/ml, 60° C., 15 days
Experimental: The stability of cholest-4-en-3-one oxime was tested in 12 different oils. The compound is added to the oil at a concentration of 15 mg/ml in the form of micronized powder, and the mixture is placed in an oven at 60° C. for 15 days. […] The major impurity obtained is cholestenone. Other impurities can also appear, certain of which are known (and known to be stable), whereas other impurities appearing are unknown, and the potential toxicity or stability of which is therefore not known.
The product is considered to be very stable (++, very stable) in a given oil if after the incubation for 15 days in the oven at 60° C., the percentage of the measured total area under the curve of the chromatogram obtained corresponding to peaks of degradation products of cholest-4-en-3-one oxime represents less than 1%, and these are known, stable products. The product is considered stable (+, stable) in an oil if after the 15 days spent in the oven at 60° C., the percentage of the measured total area under the curve of the chromatogram obtained corresponding to peaks of degradation products of cholest-4-en-3-one oxime represents less than 1%, but corresponds to unknown degradation products. The product is considered unstable (−, instable) in an oil if after the 15 days spent in the oven at 60° C., the percentage of the measured total area under the curve of the chromatogram obtained corresponding to peaks of degradation products of cholest-4-en-3-one oxime represents more than 1%.

[2] = Maximum solubility of cholest-4-en-3-one oxime in water and in different oils; format: physicochemical

Q: What does the source list for CC(C)CCC[C@@H](C)[C@H]1CC[C@H]2[C@@H]3CCC4=CC(=NO)CC[C@]4(C)[C@H]3CC[C@]12C [cholest-4-en-3-one oxime]?
A: stability ([1]; Almond oil): − (major instability of the product in the oil tested, with release of more than 1% degradation products, over 2 weeks at 60° C.); stability ([1]; Caster oil): + (compound which is stable in the oil tested, with release of less than 1% unknown degradation products, over 2 weeks at 60° C.); stability ([1]; Corn oil): − (major instability of the product in the oil tested, with release of more than 1% degradation products, over 2 weeks at 60° C.); stability ([1]; Cotton oil): ++ (compound which is very stable in the oil tested, with release of less than 1% stable known degradation products, over 2 weeks at 60° C.); stability ([1]; Ground nut oil): + (compound which is stable in the oil tested, with release of less than 1% unknown degradation products, over 2 weeks at 60° C.); stability ([1]; Mixture of medium-chain triglycerides (ESTASAN ®, MYGLIOL ®)): ++ (compound which is very stable in the oil tested, with release of less than 1% stable known degradation products, over 2 weeks at 60° C.); stability ([1]; Oleic acid): − (major instability of the product in the oil tested, with release of more than 1% degradation products, over 2 weeks at 60° C.); stability ([1]; Olive oil): ++ (compound which is very stable in the oil tested, with release of less than 1% stable known degradation products, over 2 weeks at 60° C.); stability ([1]; Rapeseed oil): + (compound which is stable in the oil tested, with release of less than 1% unknown degradation products, over 2 weeks at 60° C.); stability ([1]; Sesame oil): ++ (compound which is very stable in the oil tested, with release of less than 1% stable known degradation products, over 2 weeks at 60° C.); stability ([1]; Soya oil): ++ (compound which is very stable in the oil tested, with release of less than 1% stable known degradation products, over 2 weeks at 60° C.); stability ([1]; Sunflower oil): − (major instability of the product in the oil tested, with release of more than 1% degradation products, over 2 weeks at 60° C.); solubility ([2]; castor oil, oil or lipid): < 15 mg/mL; solubility ([2]; cotton oil, oil or lipid): 28 mg/mL (≈ 70.1 mM); solubility ([2]; ground nut oil, oil or lipid): < 15 mg/mL; solubility ([2]; oil or lipid, Mixture of medium-chain triglycerides (ESTASAN ®, MYGLIOL ®)): 45 mg/mL (≈ 113 mM); solubility ([2]; olive oil, oil or lipid): 40 mg/mL (≈ 100 mM); solubility ([2]; rapeseed oil, oil or lipid): < 15 mg/mL; solubility ([2]; sesame oil, oil or lipid): 35 mg/mL (≈ 87.6 mM); solubility ([2]; soya oil, oil or lipid): 30 mg/mL (≈ 75.1 mM); solubility ([2]; water): 0.001 mg/mL (≈ 0.0025 mM)
